# What was measured:
# [1] = system: B16 melanotic melanoma cells; assay: Growth inhibition, B16 melanotic melanoma cells in culture; type: cell-based, murine
# Experimental: As a consequence, they are the strongest competitive inhibitors of human GlxI yet described, Table 1. […] With both cell lines there was some correlation between the Ki values of the enediol analogs and the IC50 values of the corresponding diethyl esters.
# ^d Sp-bromobenzylglutathione diethyl ester. Cells were incubated for
# 48 h in RPMI 1640/10% fetal calf serum (37° C.) in the absence and
# in the presence of enzyme inhibitor. After the initial addition of
# inhibitor at time zero, fresh inhibitor was added every 12 h in order to
# compensate partially for the loss of inhibitor due to spontaneous
# hydrolytic deethylation in the growth medium.
# GlxII = settings: cited from earlier work
# L1210 cells = assay: Growth inhibition / cytotoxicity, murine leukemia L1210 cells in culture; type: cell-based
# splenic lymphocytes = assay: Toxicity toward nonproliferating splenic lymphocytes; type: cell-based; settings: L1210 cells versus splenic lymphocytes
# Source text: Conditions: See Table 1. Error bars represent standard deviations for triplicate determinations. Different symbols correspond to experiments carried out on different days.
# This is illustrated for 2(Et)2 and S-p-bromobenzylglutathionediethyl ester by the dose-response curves of FIG. 3. […] Therefore, tumor cells might not be able to detoxify the inhibitors as rapidly as normal cells. In order to determine whether this could be a factor in the present study, the glyoxalase activities in both L1210 cells and splenic lymphocytes were determined. Indeed, while the GlxI activities in the two cell lines are nearly equal, the GlxII activity in L1210 cells is about 10-fold lower than that in splenic lymphocytes. The activities of GlxI and GlxII in L1210 cells were respectively 0.31±0.03 U/mg and 0.02±0.003 U/mg, while the activities in splenic lymphocytes were respectively 0.36±0.03U/mg and 0.20±0.03 U/mg.
# human erythrocyte GlxI = settings: of the unethylated species with human erythrocyte GlxI (17); read-out: Ki, competitive inhibition constant; cited from earlier work
# HL60 cells = settings: lower with HL60; literature (13); cited from earlier work
# human tumor cell lines = settings: literature; cited from earlier work
compound,measurement,setting,value
"CCOC(=O)CNC(=O)[C@H](CSCc1ccc(Br)cc1)NC(=O)CC[C@H](N)C(=O)OCC [p-BrbzylSG(Et)2, Sp-bromobenzylglutathione diethyl ester, reference compound]",IC50,"[1]; Mus musculus, 48 h, RPMI 1640/10% fetal calf serum, 37° C., fresh inhibitor every 12 h, mean ± SD, read-out: IC50, 50% growth inhibition, B16",15 ± 5 µM
same,"relative potency, B16",[1]; versus 3(Et)2,about half as potent as 3(Et)2
same,substrate for GlxII in words,GlxII,cannot serve as a substrate for GlxII
same,"relative potency, L1210",L1210 cells; L1210 cells,as potent as 2(Et)2 and 3(Et)2
same,IC50,"L1210 cells; Mus musculus, L1210, 48 h, RPMI 1640/10% fetal calf serum, 37° C., fresh inhibitor every 12 h, mean ± SD, read-out: IC50, 50% growth inhibition, L1210",9.8 ± 3.2 µM
same,toxicity to splenic lymphocytes / selectivity in words,splenic lymphocytes; listed as S-p-Bromobenzylglutathione diethyl ester,selective toxicity
same,toxicity to splenic lymphocytes / selectivity in words,splenic lymphocytes; listed as S-p-bromobenzylglutathione diethyl ester,significant selective toxicity to L1210 cells
same,Ki,human erythrocyte GlxI,0.17 µM
same,IC50 with HL60 cells versus nonproliferating human neutrophils,HL60 cells,about 5 -fold
same,toxicity to human tumor cell lines,human tumor cell lines,toxic to a range of different human tumor cell lines in culture

# From patent publication US5969174A, “Competitive inhibitors of glyoxalase I and method of generating such competitive inhibitors inside tumor cells” (priority 1998, dated 1999)
